In US10683311B2 (priority 2015, dated 2020):

Assays:
[1] = tested on: Septoria tritici; test: Example D: in vivo preventive test on Septoria tritici (leaf spot on wheat)
Description: Example D: In Vivo Preventive Test on Septoria tritici (Leaf Spot on Wheat)
(§1) • Solvent: 5% by volume of dimethyl sulfoxide • 10% by volume of acetone • Emulsifier: 1 μL of Tween® 80 per mg of active ingredient
The active compounds were made soluble and homogenized in a mixture of dimethyl sulfoxide/acetone//Tween® 80 and then diluted in water to the desired concentration.
The young plants of wheat were treated by spraying the active compound prepared as described above. Control plants were treated only with an aqueous solution of acetone/dimethyl sulfoxide/Tween® 80.
After 24 hours, the plants were contaminated by spraying the leaves with an aqueous suspension of Septoria tritici spores. The contaminated wheat plants were incubated for 72 hours at 18° C. and at 100% relative humidity and then for 21 days at 20° C. and at 90% relative humidity.
The test was evaluated 24 days after the inoculation. 0% means an efficacy which corresponds to that of the control plants while an efficacy of 100% means that no disease is observed.

[2] = tested on: Pyricularia oryzae; test: microbe, parasite or virus in culture; assay type: cell-based; details: for Efficacy: inhibition of fungal growth, liquid culture; for inhibition at 20 ppm: Pyricularia oryzae, 120 h, read-out: efficacy (inhibition of fungal growth)
[3] = tested on: Botrytis cinerea; test: Example B: in vivo preventive test on Botrytis cinerea (grey mould); details: evaluated 4 to 5 days after inoculation
Description: Example B: In Vivo Preventive Test on Botrytis cinerea (Grey Mould)
as §1
The tested compounds were made soluble and homogenized in a mixture of dimethyl sulfoxide/acetone//Tween® 80 and then diluted in water to the desired concentration.
The young plants of gherkin were treated by spraying the tested compounds prepared as described above. Control plants were treated only with an aqueous solution of acetone/dimethyl sulfoxide/Tween® 80.
After 24 hours, the plants were contaminated by spraying the leaves with an aqueous suspension of Botrytis cinerea spores. The contaminated gherkin plants were incubated for 4 to 5 days at 17° C. and at 90% relative humidity.
The test was evaluated 4 to 5 days after the inoculation. 0% means an efficacy which corresponds to that of the control plants while an efficacy of 100% means that no disease is observed.

[4] = log P by HPLC on reversed-phase column (C18), EEC Directive 79/831 Annex V.A8; assay type: physicochemical; details: for chromatographic logP: reversed-phase HPLC column (C18)
Procedure, shortened: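 Retention time on C18 reversed-phase HPLC at 40 °C, gradient 10% to 95% acetonitrile with either 0.1% aqueous formic acid (Method A) or 0.001 molar ammonium acetate (Method B). Calibrated with unbranched alkan-2-ones (C3–C16) of known log P by linear interpolation between successive alkanones.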

[5] = dose 0.06 ppm, 5 days incubation
[6] = dose 0.25 ppm, 5 days incubation
[7] = 500 ppm of active ingredient, gherkin plants, preventive
[8] = dose 500 ppm, preventive spray on gherkin plants
[9] = 4 ppm of active ingredient, 5 days incubation
[10] = Method A: 40° C., 0.1% aqueous formic acid and acetonitrile

## Cc1nc2c(F)c(F)ccc2cc1Oc1ccccc1C[Si](C)(C)C [CMP1, 7,8-difluoro-2-methyl-3-{2-[(trimethylsilyl)methyl]phenoxy}quinoline, reference compound]
[1]; 500 ppm of active ingredient, evaluated 24 days after inoculation
  Efficacy: no protection
[1]; Table D, dose 500 ppm
  Efficacy: 0%
[2]; [5]
  Efficacy: 1%
[2]; [6]
  Efficacy: 56%
[2]; dose of 0.25 ppm or 0.06 ppm
  efficacy (inhibition of fungal growth): much lower efficacy

## Cc1cc(Oc2cccc(F)c2[Si](C)(C)C)c2ccc(F)c(F)c2n1 [CMP3, 7,8-difluoro-4-[3-fluoro-2-(trimethylsilyl)phenoxy]-2-methylquinoline, reference compound]
[3]; [7]
  Efficacy: no efficacy
[3]; [8]
  Efficacy: 0%
[2]; 1 ppm, 5 days incubation
  Efficacy: 0%
[2]; [9]
  efficacy (inhibition of fungal growth): much lower efficacy
[2]; 4 ppm, 5 days incubation
  Efficacy: 25%
[2]; 20 ppm, 5 days incubation
  Efficacy: 96%

## C[Si](C)(C)c1c(F)cccc1Oc1ccnc2cccnc12 [CMP4, 4-[3-fluoro-2-(trimethylsilyl)-phenoxy]-1,5-naphthyridine, reference compound]
[3]; [7]
  Efficacy: no efficacy
[3]; [8]
  Efficacy: 0%
[2]; 1 ppm, 5 days incubation
  Efficacy: 0%
[2]; [9]
  efficacy (inhibition of fungal growth): much lower efficacy
[2]; 4 ppm, 5 days incubation
  Efficacy: 11%
[2]; 20 ppm, 5 days incubation
  Efficacy: 44%

## Cc1nc2c(F)c(F)ccc2cc1Oc1ccccc1[Si](C)(C)C [I.024]
[1]; Table D, dose 500 ppm
  Efficacy: 81%
[4]; [10]
  logP: 6.01
[2]; [5]
  Efficacy: 89%
[2]; [6]
  Efficacy: 96%
[2]; dose of 0.25 ppm or 0.06 ppm
  efficacy (inhibition of fungal growth): at least 80%

## Cc1nc2c(F)c(F)ccc2cc1Oc1cccc(F)c1[Si](C)(C)C [I.027]
[3]; [8]
  Efficacy: 92%
[4]; Method B: 40° C., 0.001 molar ammonium acetate solution in water and acetonitrile
  logP: 5.54
[2]; 1 ppm, 5 days incubation
  Efficacy: 85%
[2]; 4 ppm, 5 days incubation
  Efficacy: 94%
[2]; 20 ppm, 5 days incubation
  Efficacy: 100%

## Cc1nc2ccccc2cc1Oc1ccccc1[Si](C)(C)C [I.047, 2-methyl-3-[2-(trimethylsilyl)phenoxy]quinoline]
[4]; [10]
  chromatographic logP: 4.85
[2]
  inhibition at 20 ppm: 90 to 100%

## C[SiH](c1ccccc1)c1c(F)cccc1Oc1cc2ccccc2nc1Cl (stereo not drawn) [I.062, 2-chloro-3-{3-fluoro-2-[methyl(phenyl)silyl]phenoxy}quinoline]
[4]; [10]
  chromatographic logP: 5.78
[2]
  inhibition at 20 ppm: 90 to 100%

## C[Si](C)(C)c1c(F)cccc1Oc1cnc2cccnc2c1 [I.116]
[3]; [8]
  Efficacy: 73%
[4]; [10]
  logP: 4.15
[2]; 1 ppm, 5 days incubation
  Efficacy: 90%
[2]; 4 ppm, 5 days incubation
  Efficacy: 100%
[2]; 20 ppm, 5 days incubation
  Efficacy: 100%
